Tests used:
[1] = target: Fibroblast growth factor receptor 2 (Homo sapiens) (UniProt P21802); details: Compound concentration 20.0 uM
Description: Thermal Shift Assay. Domain: start/stop: T457-E768

Peregrin (Homo sapiens) = target: T1, Peregrin (Homo sapiens) (UniProt P55201); details: Compound concentration 20.0 uM
T1 sequence (whole entry): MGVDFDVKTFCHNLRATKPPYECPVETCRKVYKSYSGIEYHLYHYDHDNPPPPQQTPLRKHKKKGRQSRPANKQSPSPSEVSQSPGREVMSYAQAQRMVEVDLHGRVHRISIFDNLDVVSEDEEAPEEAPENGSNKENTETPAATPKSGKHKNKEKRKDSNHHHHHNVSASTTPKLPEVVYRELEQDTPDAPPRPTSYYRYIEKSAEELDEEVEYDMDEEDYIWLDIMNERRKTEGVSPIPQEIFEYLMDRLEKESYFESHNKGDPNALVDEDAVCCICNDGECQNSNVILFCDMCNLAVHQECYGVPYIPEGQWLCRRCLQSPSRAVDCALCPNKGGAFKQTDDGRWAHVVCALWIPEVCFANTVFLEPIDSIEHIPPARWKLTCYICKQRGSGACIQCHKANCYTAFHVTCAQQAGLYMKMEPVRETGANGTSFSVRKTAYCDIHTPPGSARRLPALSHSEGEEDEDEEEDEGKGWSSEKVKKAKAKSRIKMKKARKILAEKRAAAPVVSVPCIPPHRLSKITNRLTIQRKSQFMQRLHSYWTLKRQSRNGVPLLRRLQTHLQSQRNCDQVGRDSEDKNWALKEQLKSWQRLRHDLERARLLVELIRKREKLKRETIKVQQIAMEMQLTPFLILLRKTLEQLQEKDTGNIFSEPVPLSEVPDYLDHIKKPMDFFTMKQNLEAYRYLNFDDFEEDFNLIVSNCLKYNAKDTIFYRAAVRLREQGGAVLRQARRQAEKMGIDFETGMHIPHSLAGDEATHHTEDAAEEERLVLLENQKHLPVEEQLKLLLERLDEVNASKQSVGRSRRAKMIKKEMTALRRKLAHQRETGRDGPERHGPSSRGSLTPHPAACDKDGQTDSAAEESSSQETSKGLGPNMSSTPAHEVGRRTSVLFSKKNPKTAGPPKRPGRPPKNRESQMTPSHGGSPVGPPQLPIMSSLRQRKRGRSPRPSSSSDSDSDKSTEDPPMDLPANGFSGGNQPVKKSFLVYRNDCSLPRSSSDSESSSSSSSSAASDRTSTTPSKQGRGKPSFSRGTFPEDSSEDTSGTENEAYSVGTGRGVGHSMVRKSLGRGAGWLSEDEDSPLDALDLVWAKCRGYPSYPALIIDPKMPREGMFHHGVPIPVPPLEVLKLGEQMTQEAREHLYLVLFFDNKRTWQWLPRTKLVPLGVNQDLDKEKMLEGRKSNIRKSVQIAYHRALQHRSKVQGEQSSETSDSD

Sequence of Fibroblast growth factor receptor 2 (Homo sapiens) (P21802 22-821 limits assumed): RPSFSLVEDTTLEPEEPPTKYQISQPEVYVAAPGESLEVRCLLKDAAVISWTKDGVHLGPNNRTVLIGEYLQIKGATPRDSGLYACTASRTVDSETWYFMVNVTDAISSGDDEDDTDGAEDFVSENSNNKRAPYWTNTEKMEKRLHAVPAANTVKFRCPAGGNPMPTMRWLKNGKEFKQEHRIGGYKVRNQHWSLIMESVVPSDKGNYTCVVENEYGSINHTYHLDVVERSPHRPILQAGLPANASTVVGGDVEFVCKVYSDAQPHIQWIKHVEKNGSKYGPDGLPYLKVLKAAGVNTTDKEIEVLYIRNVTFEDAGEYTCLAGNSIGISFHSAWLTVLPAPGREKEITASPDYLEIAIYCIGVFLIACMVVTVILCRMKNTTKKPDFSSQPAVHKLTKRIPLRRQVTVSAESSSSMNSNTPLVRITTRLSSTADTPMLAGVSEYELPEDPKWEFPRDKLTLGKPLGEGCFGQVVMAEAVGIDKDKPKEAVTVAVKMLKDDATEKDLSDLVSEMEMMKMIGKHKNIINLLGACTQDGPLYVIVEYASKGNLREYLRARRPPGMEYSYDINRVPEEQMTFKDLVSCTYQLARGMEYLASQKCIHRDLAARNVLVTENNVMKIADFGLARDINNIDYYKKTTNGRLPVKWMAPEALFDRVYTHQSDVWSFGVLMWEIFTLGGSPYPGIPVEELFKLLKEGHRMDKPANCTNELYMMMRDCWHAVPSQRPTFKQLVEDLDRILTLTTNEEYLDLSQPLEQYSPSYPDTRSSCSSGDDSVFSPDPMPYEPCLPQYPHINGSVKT

With `CS(=O)(=O)N1CCN(C(=O)c2cnc3ccc(F)cc3c2-c2ccc(C3(C#N)CC3)cc2)CC1` the ΔTm [1] was 0.1 °C and the ΔTm (Peregrin (Homo sapiens)) was 0.38 °C.
For `O=C(O)C1=CCCN(CCOC(c2ccc(C(F)(F)F)cc2)c2ccc(C(F)(F)F)cc2)C1`, the ΔTm [1] was -0.15 °C and the ΔTm (Peregrin (Homo sapiens)) was 0.47 °C.
`NC(=O)c1cnc(N[C@@H]2CCCC[C@@H]2N)nc1Nc1cccc(-n2nccn2)c1` was tested, and the ΔTm [1] was 0.98 °C and the ΔTm (Peregrin (Homo sapiens)) was -1.09 °C.
`CNc1cc(-c2cccc(Cl)c2Cl)nc(N)n1` gave a ΔTm [1] of -0.72 °C and a ΔTm (Peregrin (Homo sapiens)) of 0.7 °C.
For `COc1cc2c(cc1OC)[C@H]1C[C@@H](O)[C@H](CC(C)C)CN1CC2`, the ΔTm [1] was 0.33 °C and the ΔTm (Peregrin (Homo sapiens)) was 0.34 °C.
Molecule `Cc1nccn1CC1CCc2c(c3ccccc3n2C)C1=O` (configuration not stated) has a ΔTm [1] of -0.16 °C and a ΔTm (Peregrin (Homo sapiens)) of 0.91 °C.
`C[C@@H](COCCC(=O)N1CCN(c2ncc(C(F)(F)F)cn2)CC1)Nc1cn[nH]c(=O)c1C(F)(F)F` gave a ΔTm [1] of 0.24 °C and a ΔTm (Peregrin (Homo sapiens)) of 0.01 °C.
Molecule `CC(=O)O[C@]1(C(C)=O)CC[C@H]2[C@@H]3CCC4=CC(=O)CCC4=C3[C@@H](c3ccc(N(C)C)cc3)C[C@@]21C` has a ΔTm [1] of -0.06 °C and a ΔTm (Peregrin (Homo sapiens)) of -2.65 °C.
With `C[C@@H]1CN(Cc2ncccn2)C[C@H]1c1nc2c(cnn2C2CCOCC2)c(=O)[nH]1` the ΔTm [1] was 0.17 °C and the ΔTm (Peregrin (Homo sapiens)) was 0.83 °C.
`CC(C)(CNC(=O)c1cccc(-c2noc(C(F)(F)F)n2)c1)c1coc(-c2ccccc2)n1` was tested, and the ΔTm [1] was 0.16 °C and the ΔTm (Peregrin (Homo sapiens)) was -1.34 °C.
In the case of `CCCC1O[C@@H]2C[C@H]3[C@@H]4CCC5=CC(=O)C=C[C@]5(C)[C@H]4[C@@H](O)C[C@]3(C)[C@]2(C(=O)CO)O1` (some centres not stated), the ΔTm [1] is reported as -0.77 °C and the ΔTm (Peregrin (Homo sapiens)) is reported as -1.04 °C.
With `CCNC(=O)NCCSC[C@H]1O[C@@H](n2cnc3c(N)ncnc32)[C@H](O)[C@@H]1O` the ΔTm [1] was 0.95 °C and the ΔTm (Peregrin (Homo sapiens)) was -1.31 °C.
`C=Cc1cc(C(=O)Nc2ccc(C(=N)N)cc2)c(-c2ccc(C(=O)NCC3CC3)nc2C(=O)O)cc1OC` showed a ΔTm [1] of 0.02 °C and a ΔTm (Peregrin (Homo sapiens)) of 2.91 °C.
In the case of `O=C(O)CCNc1cc(N2CCc3ccccc3CC2)nc(-c2ccccn2)n1`, the ΔTm [1] is reported as 0.4 °C and the ΔTm (Peregrin (Homo sapiens)) is reported as 0.6 °C.
Work on `COc1cc2c(NC3CCN(C4CCCCC4)CC3)nc(N3CCCN(C(C)C)CC3)nc2cc1OCCCN1CCCCC1` yielded a ΔTm [1] of 0.34 °C and a ΔTm (Peregrin (Homo sapiens)) of -1.05 °C.
Molecule `CCCCCCCCCCCCCCCCNNC(=O)c1cccs1` has a ΔTm [1] of 0.53 °C and a ΔTm (Peregrin (Homo sapiens)) of -0.84 °C.
Molecule `C[C@@H]1CCC[C@H](C)N1NC(=O)c1ccc(Cl)c(S(N)(=O)=O)c1` has a ΔTm [1] of -0.13 °C and a ΔTm (Peregrin (Homo sapiens)) of 0.5 °C.
For `COc1ccc2nc3[nH]nc(C)c3c(NCCOCCO)c2c1`, the ΔTm [1] was 0.8 °C and the ΔTm (Peregrin (Homo sapiens)) was -1.14 °C.
`CCCCCCCC(=O)N[C@H](CN1CCCC1)[C@H](O)c1ccc2c(c1)OCCO2` gave a ΔTm [1] of 0.38 °C and a ΔTm (Peregrin (Homo sapiens)) of 1.02 °C.
`CCc1c(C#N)c(S[C@@H](C(N)=O)c2ccccc2)nc(N(C)C)c1C#N` was tested, and the ΔTm [1] was -0.11 °C and the ΔTm (Peregrin (Homo sapiens)) was 2.36 °C.
`CN1Cc2c(Cl)cc(Cl)cc2[C@H](c2cccc(S(=O)(=O)NCCOCCOCCNC(=O)NCCCCNC(=O)NCCOCCOCCNS(=O)(=O)c3cccc([C@@H]4CN(C)Cc5c(Cl)cc(Cl)cc54)c3)c2)C1` gave a ΔTm [1] of -0.42 °C and a ΔTm (Peregrin (Homo sapiens)) of 0.43 °C.
For `NS(=O)(=O)OC[C@H]1C[C@@H](Nc2ccnc3cc(-c4cccc(SC(F)(F)F)c4)nn23)[C@H](O)[C@@H]1O`, the ΔTm [1] was -0.4 °C and the ΔTm (Peregrin (Homo sapiens)) was 3.28 °C.
With `COc1ccc(C(=O)N[C@H](C(=O)N2CCC[C@H]2C(=O)N[C@H](C(=O)C(F)(F)F)C(C)C)C(C)C)cc1` the ΔTm [1] was 0.07 °C and the ΔTm (Peregrin (Homo sapiens)) was 0.8 °C.
For `Nc1ccc(-c2cccs2)cc1NC(=O)c1ccc(NC=O)cc1`, the ΔTm [1] was 0.02 °C and the ΔTm (Peregrin (Homo sapiens)) was 2.98 °C.
For `CC1C(C#N)=C(N)OC2=C1C(=O)CC(c1cccc3ccccc13)C2` (configuration not stated), the ΔTm [1] was -1.52 °C and the ΔTm (Peregrin (Homo sapiens)) was 1.86 °C.
`Cn1ncnc1[C@H]1C2=c3c(cc(F)cc3=N[C@@H]1c1ccc(F)cc1)C(=O)NN2` gave a ΔTm [1] of 0.09 °C and a ΔTm (Peregrin (Homo sapiens)) of 3.07 °C.
`CC/C(=C(/c1ccc(/C=C/C(=O)O)cc1)c1ccc2[nH]ncc2c1)c1ccc(F)cc1Cl` was tested, and the ΔTm [1] was -5.4 °C and the ΔTm (Peregrin (Homo sapiens)) was 0 °C.
`CC(=O)Nc1ccc(C(=O)Nc2ccc(F)cc2N)cc1` gave a ΔTm [1] of 0.76 °C and a ΔTm (Peregrin (Homo sapiens)) of 1.03 °C.
For `O=[N+]([O-])c1ccc(CSc2ncnc3c2ncn3[C@@H]2O[C@H](CO)[C@@H](O)[C@H]2O)cc1`, the ΔTm [1] was 0.22 °C and the ΔTm (Peregrin (Homo sapiens)) was 1.12 °C.
`O=C(O)C1CCCN(CCC=C(c2ccccc2)c2ccccc2)C1` (configuration not stated) showed a ΔTm [1] of 0.41 °C and a ΔTm (Peregrin (Homo sapiens)) of 0.59 °C.
`O=C(Oc1cccc(F)c1OC(=O)c1cccc(O)c1)c1cccc(O)c1` showed a ΔTm [1] of 0.56 °C and a ΔTm (Peregrin (Homo sapiens)) of 3.01 °C.
